From patent publication US7550456B2, “Substituted aryl cycloalkanoyl derivatives and methods of their use” (Wyeth, priority 2003, dated 2009) come the findings set out here.

Where a name gives a salt, the structure may show the parent alone.

In general, inhibition refers to the drop in the measured response relative to a control, in per cent. Usually EC50 stands for the midpoint of the concentration-response curve.

T1 sequence (P23975 whole entry): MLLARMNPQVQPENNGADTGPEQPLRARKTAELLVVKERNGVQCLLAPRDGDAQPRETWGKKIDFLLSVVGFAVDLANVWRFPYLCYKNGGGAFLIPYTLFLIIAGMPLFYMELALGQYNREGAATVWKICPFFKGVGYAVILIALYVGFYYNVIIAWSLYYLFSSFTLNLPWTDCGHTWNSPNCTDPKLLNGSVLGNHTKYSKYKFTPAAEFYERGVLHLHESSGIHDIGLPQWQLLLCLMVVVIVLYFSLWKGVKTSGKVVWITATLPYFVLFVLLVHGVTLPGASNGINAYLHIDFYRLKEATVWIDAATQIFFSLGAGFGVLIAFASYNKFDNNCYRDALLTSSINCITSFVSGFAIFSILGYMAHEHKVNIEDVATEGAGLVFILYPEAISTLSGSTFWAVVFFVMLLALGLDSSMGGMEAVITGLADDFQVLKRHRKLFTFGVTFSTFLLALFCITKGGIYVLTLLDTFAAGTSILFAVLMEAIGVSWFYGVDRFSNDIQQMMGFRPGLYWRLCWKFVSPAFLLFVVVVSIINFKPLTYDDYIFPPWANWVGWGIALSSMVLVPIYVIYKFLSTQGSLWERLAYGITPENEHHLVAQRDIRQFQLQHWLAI

One assay has as its target T1, human hNET (Homo sapiens, UniProt P23975).
T1 construct: expressed in transfected cells; host or cells: MDCK-Net6 (MDCK cells, stably transfected)
The assay is described as follows: Norepinephrine (NE) uptake assay in MDCK-Net6 cells. The assay is classed as cell-based. The settings on record: 1 μM test compound, [3H]NE uptake. Summed up: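 Radiolabelled NE uptake was counted by scintillation after NaOH lysis, with 1 µM desipramine defining non-specific uptake. EC50 came from a logistic dose-response fit.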
In the case of “1-[1-[4-methoxy-3-(trifluoromethoxy)phenyl]-2-(4-methylpiperazin-1-yl)ethyl]cyclohexanoldihydrochloride [Example 403]”, the “% Inhibition @ 1 μM (hNET)” value is listed as 48%.

The same assay, now with this note: 1 μM test compound, [3H]NE uptake, read-out: % Inhibition @ 1 μM (hNET).
On to `OC1(C(CN2CCNCC2)c2ccc(OCc3ccccc3)c(Cl)c2)CCCCC1` (stereo not drawn) [Example 292, 1-{1-[4-(benzyloxy)-3-chlorophenyl]-2-piperazin-1-ylethyl}cyclohexanol dihydrochloride], for which the inhibition at 1 µM is 89%.
Same read-out and setting: then `NC1CCN(CC(c2cccc(-c3ccc(Cl)c(Cl)c3)c2)C2(O)CCCCC2)CC1` (stereo not drawn) [Example 152, 1-[2-(4-aminopiperidin-1-yl)-1-(3′,4′-dichloro-1,1′-biphenyl-3-yl)ethyl]cyclohexanol dihydrochloride], with 1%.
On the same count and under the same terms, then `CN1CCN(CC(c2ccc(OCc3cccc(C(F)(F)F)c3)c(Cl)c2)C2(O)CCCCC2)CC1` (stereo not drawn) [Example 424, 1-[1-(3-chloro-4-{[3-(trifluoromethyl)benzyl]oxy}phenyl)-2-(4-methylpiperazin-1-yl)ethyl]cyclohexanol dihydrochloride], with 75%; and `OC1(C(CN2CCNCC2)c2cccc(OCc3ccccc3)c2)CCCCC1` (stereo not drawn) [Example 104, 1-{1-[3-(benzyloxy)phenyl]-2-piperazin-1-ylethyl}cyclohexanol dihydrochloride], with 3%; and `C[C@@H]1CN(CC(c2ccc(OC(F)(F)F)cc2)C2(O)CCCCC2)C[C@H](C)N1` (stereo partly drawn) [Example 288, 1-{2-[cis-3,5-dimethylpiperazin-1-yl]-1-[4(trifluoromethoxy)phenyl]ethyl}cyclohexanol dihydrochloride], with 77.6%.
Still for that read-out and setting: in the case of `CN1CCN(CC(c2ccc(OCCc3ccccc3)c(Cl)c2)C2(O)CCCCC2)CC1` (stereo not drawn) [Example 453, 1-[1-[3-chloro-4-(2-phenylethoxy)phenyl]-2-(4-methylpiperazin-1-yl)ethyl]cyclohexanol dihydrochloride] it was 82%; in that of `OC1(C(CN2CCNCC2)c2ccc(OCc3ccccc3)c(F)c2)CCCCC1` (stereo not drawn) [Example 413, 1-{1-[4-(benzyloxy)-3-fluorophenyl]-2-piperazin-1-ylethyl}cyclohexanol dihydrochloride], 76%; in that of `CN1CCN(CC(c2ccc(OCc3ccccc3)c(F)c2)C2(O)CCCCC2)CC1` (stereo not drawn) [Example 414, 1-{1-[4-(benzyloxy)-3-fluorophenyl]-2-(4-methylpiperazin-1-yl)ethyl}cyclohexanol dihydrochloride], 96%.
As to `OC1(C(CN2CCNCC2)c2ccccc2-c2ccccc2)CCCCC1` (stereo not drawn) [Example 149, 1-[1-(1,1′-biphenyl-2-yl)-2-piperazin-1-ylethyl]cyclohexanol dihydrochloride], the inhibition at 1 µM was 31%.
The same measure, in the same setting: then `OC1(C(CN2CCNCC2)c2ccc(OCc3ccccc3C(F)(F)F)c(Cl)c2)CCCCC1` (stereo not drawn) [Example 421, 1-[1-(3-chloro-4-{[2-(trifluoromethyl)benzyl]oxy}phenyl)-2-piperazin-1-ylethyl]cyclohexanol dihydrochloride], with 59%.
Still for that read-out and setting: in the case of `CC(C)(CO)N1CCN(CC(c2cccc(OC(F)(F)F)c2)C2(O)CCCCC2)CC1` (stereo not drawn) [Example 373, 1-{2-[4-(2-hydroxy-1,1-dimethylethyl)piperazin-1-yl]-1-[3-(trifluoromethoxy)phenyl]ethyl}cyclohexanol dihydrochloride] it was 90%; in that of `OC1(C(CN2CCNCC2)c2cccc(-c3ccc(C(F)(F)F)cc3)c2)CCCCC1` (stereo not drawn) [Example 249, 1-{2-piperazin-1-yl-1-[4′-(trifluoromethyl)-1,1′-biphenyl-3-yl]ethyl}cyclohexanol dihydrochloride], 32%; in that of `CN1CCN(CC(c2ccc(OCc3ccccc3C(F)(F)F)cc2)C2(O)CCCCC2)CC1` (stereo not drawn) [Example 441, 1-[2-(4-methylpiperazin-1-yl)-1-(4-{[2-(trifluoromethyl)benzyl]oxy}phenyl)ethyl]cyclohexanol dihydrochloride], 33%.
The same measure, in the same setting: then `C[C@@H](c1ccccc1)N1CCN(C[C@H](c2cccc(OC(F)(F)F)c2)C2(O)CCCCC2)CC1` [Example 363, 1-{(1S)-2-{4-[(1S)-1-phenylethyl]piperazin-1-yl}-1-[3-(trifluoromethoxy)phenyl]ethyl}cyclohexanol dihydrochloride], with 42%; and `OC1(C(CN2CCNCC2)c2cccc(-c3ccc(Cl)cc3)c2)CCCCC1` (stereo not drawn) [Example 137, 1-[1-(4′-chloro-1,1′-biphenyl-3-yl)-2-piperazin-1-ylethyl]cyclohexanol dihydrochloride], with 41%; and `CN1CCN(CC(c2ccc(OCc3ccccc3)c(Br)c2)C2(O)CCCCC2)CC1` (stereo not drawn) [Example 265, 1-[1-[4-(benzyloxy)-3-bromophenyl]-2-(4-methylpiperazin-1-yl)ethyl]cyclohexanol dihydrochloride], with 44%.
In the case of `OC1(C(CN2CCNCC2)c2ccc(OCc3ccc(Br)cc3F)c(Cl)c2)CCCCC1` (stereo not drawn) [Example 425, 1-(1-{4-[(4-bromo-2-fluorobenzyl)oxy]-3-chlorophenyl}-2-piperazin-1-ylethyl)cyclohexanol dihydrochloride], the inhibition at 1 µM worked out at 80%.
Still for that read-out and setting: in the case of `CN1CCN(CC(c2ccc(OCc3ccc4ccccc4c3)cc2)C2(O)CCCCC2)CC1` (stereo not drawn) [Example 433, 1-{2-(4-methylpiperazin-1-yl)-1-[4-(2-naphthylmethoxy)phenyl]ethyl}cyclohexanol] it was 49%.
Same read-out and setting: in the case of `OC1(C(CN2CCNCC2)c2ccc(OCc3ccc(C(F)(F)F)cc3)cc2)CCCCC1` (stereo not drawn) [Example 436, 1-[2-piperazin-1-yl-1-(4-{[4-(trifluoromethyl)benzyl]oxy}phenyl)ethyl]cyclohexanol dihydrochloride] it was 63%; in that of `CN1CCN(CC(c2ccc(-c3ccc(F)cc3)cc2)C2(O)CCCCC2)CC1` (stereo not drawn) [Example 180, 1-[1-(4′-fluoro-1,1′-biphenyl-4-yl)-2-(4-methylpiperazin-1-yl)ethyl]cyclohexanol dihydrochloride], 47%.
On the same count and under the same terms, then `Oc1ccc(C(CN2CCNCC2)C2(O)CCCCC2)cc1OC(F)(F)F` (stereo not drawn) [Example 400, 4-[1-(1-hydroxycyclohexyl)-2-piperazin-1-ylethyl]-2-(trifluoromethoxy)phenol dihydrochloride], with 38%; and `CN1CCN(CC(c2ccc(OCc3ccccc3)cc2)C2(O)CCCCC2)CC1` (stereo not drawn) [Example 322, 1-[2-(4-Methyl-1-piperazinyl)-1-[4-phenylmethoxy)phenyl]ethyl]cyclohexanol dihydrochloride], with 97.2%.
Take `OC1(C(CN2CCNCC2)c2ccc(-c3ccccc3F)cc2)CCCCC1` (stereo not drawn) [Example 289, 1-[1-(2′-fluoro-1,1′-biphenyl-4-yl)-2-piperazin-1-ylethyl]cyclohexanol dihydrochloride]: the inhibition at 1 µM stood at 34%.
As for `COc1ccccc1COc1ccc(C(CN2CCN(C)CC2)C2(O)CCCCC2)cc1Cl` (stereo not drawn) [Example 457, 1-[1-{3-chloro-4-[(2-methoxybenzyl)oxy]phenyl}-2-(4-methylpiperazin-1-yl)ethyl]cyclohexanol dihydrochloride], the inhibition at 1 µM was determined as 77%.
As to `OC1(C(CN2CCNCC2)c2ccc(OCc3ccccc3)cc2)CCCCC1` (stereo not drawn) [Example 27, 1-{1-[4-(benzyloxy)phenyl]-2-piperazin-1-ylethyl}cyclohexanol dihydrochloride], the inhibition at 1 µM was determined as 82%.
The same measure, in the same setting: in the case of `CN1CCN(CC(c2cccc(-c3ccc(Cl)c(Cl)c3)c2)C2(O)CCCCC2)CC1` (stereo not drawn) [Example 247, 1-[1-(3′,4′-dichloro-1,1′-biphenyl-3-yl)-2-(4-methylpiperazin-1-yl)ethyl]cyclohexanol dihydrochloride] it was 49%; in that of `OC1(C(CN2CCNCC2)c2ccc(OCc3cccc(C(F)(F)F)c3)cc2)CCCCC1` (stereo not drawn) [Example 438, 1-[2-piperazin-1-yl-1-(4-{[3-(trifluoromethyl)benzyl]oxy}phenyl)ethyl]cyclohexanol dihydrochloride], 69%; in that of `CN1CCN(CC(c2ccc(OCC3CCCCC3)cc2)C2(O)CCCCC2)CC1` (stereo not drawn) [Example 468, 1-[1-[4-(cyclohexylmethoxy)phenyl]-2-(4-methylpiperazin-1-yl)ethyl]cyclohexanol dihydrochloride], 0%.
The same measure, in the same setting: then `COc1ccc(C(CN2CCNCC2)C2(O)CCCCC2)cc1OC(F)(F)F` (stereo not drawn) [Example 402, 1-{1-[4-methoxy-3-(trifluoromethoxy)phenyl]-2-piperazin-1-ylethyl}cyclohexanol dihydrochloride], with 42%.

The assay is the same for the next values; noted with them: 10 μM test compound (stated in the cell), [3H]NE uptake.
The compound `COc1ccc(C(CN2CCN(C)CC2)C2(O)CCCCC2)cc1-c1cccc(OC(F)(F)F)c1` (stereo not drawn) [Example 256, 1-[1-[6-methoxy-3′-(trifluoromethoxy)-1,1′-biphenyl-3-yl]-2-(4-methylpiperazin-1-yl)ethyl]cyclohexanol dihydrochloride] gave an inhibition at 10 µM of 72.8%.
On the same count and under the same terms, then `CN1CCN(CC(c2ccc(-c3cccc(Cl)c3)cc2)C2(O)CCC2)CC1` (stereo not drawn) [Example 294, 1-[1-(3′-chloro-1,1′-biphenyl-4-yl)-2-(4-methylpiperazin-1-yl)ethyl]cyclobutanol dihydrochloride], with 27.2%.

Still in this assay, the particulars now being: MDCK-Net6, read-out: % Inhibition @ 1 μM (hNET), 1 μM test compound, [3H]NE uptake.
`OC1(C(CN2CCNCC2)c2cccc(OC(F)(F)F)c2)CCCCC1` (stereo not drawn) [Example 23, 1-{2-piperazin-1-yl-1-[3-(trifluoromethoxy)phenyl]ethyl}cyclohexanol dihydrochloride]: the inhibition at 1 µM came to 85%.
Still for that read-out and setting: then `CN1CCN(CC(c2cccc(OC(F)(F)F)c2)C2(O)CCCCC2)CC1` (stereo not drawn) [Example 24, 1-{2-(4-methylpiperazin-1-yl)-1-[3-(trifluoromethoxy)phenyl]ethyl}cyclohexanol dihydrochloride], with 85%.

Staying with this assay, now noted: [3H]NE uptake, test range 1 to 10,000 nM.
In turn, `OC1(C(CN2CCNCC2)c2cccc(OC(F)(F)F)c2)CCCCC1` (stereo not drawn) [Example 23, 1-{2-piperazin-1-yl-1-[3-(trifluoromethoxy)phenyl]ethyl}cyclohexanol dihydrochloride] returned a concentration giving a half-maximal response (EC50) of 350 nM. This counts as sub-micromolar.
Still for that read-out and setting: then `OC1(C(CN2CCNCC2)c2ccc(OCc3ccccc3)cc2)CCCCC1` (stereo not drawn) [Example 27, 1-{1-[4-(benzyloxy)phenyl]-2-piperazin-1-ylethyl}cyclohexanol dihydrochloride], with 470 nM.
